# Experimental data as given in patent US20210002725A1, “METHODS FOR THE DIAGNOSIS OF METABOLIC DISORDERS USING EPIMETABOLIC SHIFTERS, MULTIDIMENSIONAL INTRACELLULAR MOLECULES, OR ENVIRONMENTAL INFLUENCES” (Berg LLC, priority 2009, published 2021).
# Where two headings read alike, the source gives them in different places.
# What was measured:
# SCC cells = test: Real-time PCR Diabetes Array; type: cell-based; conditions: 100 μM
# Description: The control cells were untreated cells.
# [1] = tested on: HepG2 (liver cancer) cells; test: Real-time PCR Apoptosis Array; type: cell-based
# ATP Citrate Lyase (ACL) = test: Western blot of ATP Citrate Lyase levels in cells treated with Coenzyme Q10; type: cell-based, human; conditions: for ATP Citrate Lysase band Normalized Intensity: 48 h
# Protocol: The whole cell pellets were resuspended one at a time in 1 mL of C7 buffer and transferred to labeled 15 mL tubes. The samples were then sonicated in the cold room on ice using 6 sonic pulses with the setting at #14. The samples were spun for a short time to 2500 g after sonication and the samples transferred to 2 ml tubes. The pH was verified of each sample (pH should be 9.0) using the foam remaining in the […] sample tubes.
# After transfer each of the blots was placed in between 2 Whatman Filter papers and dried for 15-20 minutes. After drying the blots were labeled with the date, the type of samples and either blot 1 or blot 2 using a HB pencil. The molecular weight markers were outlined with the pencil and with single lines for the blue and a doublet for the colored markers. The blots were activated with methanol for 5 seconds, washed with water for 5 minutes, and TBST for 15 minutes. The blots were blocked for 1 hour with 5% blocking reagent in TBS-T at room temperature and then washed 3 times with TBS-T (1×-15′; 2×5′ each). Blot 1 was probed with the primary antibody for IDH1 (Cell Signaling #3997) in TBST with 5% BSA (at 1:1000 dilutions) and blot 2 with the rabbit polyclonal antibody for ATP Citrate Lyase in 5% BSA (Cell Signaling #4332) at 1:1000 dilution by incubation overnight at 4 deg C. with shaking. After the overnight incubation with primary antibodies, the blots were washed 3 times with TBS-T (1×-15′; 2×5′ each) and probed with the secondary antibody (antirabbit; 1:10,000 dilution) for 1 hon the orbital tilting shaker at room temperature. After 1 h of incubation with secondary antibodies, the blots were washed 3 times with TBS-T (1×-15′; 2×5′ each) and then incubated with ECF reagent for 5 mins and then each blot scanned with 5100 Fuji Laser scanner at 25 uM resolution, 16 bit, green laser, at 400V and at 500 V.
# The samples were processed and run on a 4-12% Bis-Tris Novex NuPAGE gel as described above. The gels were run, transferred and stained essentially as described above.
# The Isocitrate dehydrogenase blot was stripped by incubating for 30 minutes with methanol, followed by two 10 minute washes with TBS-T, then 30 minutes of incubation with stripping buffer at 50 deg C., and followed by two washes with 100 ml or more of TBS-T for 30′ each. The blot was scanned in laser scanner to check for complete stripping. The blot was activated with methanol for 5 seconds, washed with water for 5 minutes, and TBST for 15 minutes. The blot was blocked for 1 hour with 5% blocking reagent in TBS-T at room temperature and then washed 3 times with TBS-T (1×-15′; 2×5′ each). This was then probed with the rabbit polyclonal antibody for ATP Citrate Lyase in 5% BSA (Cell Signaling #4332) at 1:1000 dilution overnight at 4 deg C. with shaking. After the overnight incubation with primary antibody for ATP Citrate Lyase, the membrane was washed 3 times with TBS-T (1×-15′; 2×5′ each) and probed with the secondary antibody (antirabbit; 1:10,000 dilution) for 1 h on the orbital tilting shaker at room temperature. After 1 h of incubation with secondary antibodies, the blot was washed 3 times with TBS-T (1×-15′; 2×5′ each) and then incubated with ECF reagent for 5 minutes and then each blot scanned with 5100 Fuji Laser scanner at 25 uM resolution, 16 bit, green laser, at 400V and at 500 V.
# In this experiment (western blot experiment 3), and in all of the experiments described below in this Example (i.e., western blot experiments 4 through 9), the cells were additionally treated with either 5 mM glucose (“5G”) or 22 mM glucose (“22G”). The samples derived from the cells were processed and run on a 4-12% Bis-Tris Novex NuPAGE gel as described above. The gels were run, transferred and stained essentially as described above.
# The levels of IDH1, ATP citrate lyase and actin levels were determined by probing the blots with primary antibodies for IDH1, ATP citrate lyase and actin, essentially as described above.
# [2] = cited from earlier work
smiles,measurement,setting,value
"COC1=C(OC)C(=O)C(C/C=C(\C)CC/C=C(\C)CC/C=C(\C)CC/C=C(\C)CC/C=C(\C)CC/C=C(\C)CC/C=C(\C)CC/C=C(\C)CC/C=C(\C)CCC=C(C)C)=C(C)C1=O [Q10, Coenzyme Q10]",TNFRSF1A gene Regulation,SCC cells; at 6 and 24 hours,Down regulated at 6 and 24
same,G6PD gene Regulation,SCC cells; at 6 hours,Down regulated at 6 hours.
same,ICAM1 gene Regulation,SCC cells; at 6 hours,Down regulated at 6 hours.
same,INPPL1 gene Regulation,SCC cells; at 6 hours,Down regulated at 6 hours.
same,NOS3 gene Regulation,SCC cells; at 6 hours,Down regulated at 6 hours.
same,PIK3CD gene Regulation,SCC cells; at 6 hours,Down regulated at 6 hours.
same,PPARA gene Regulation,SCC cells; at 6 hours,Down regulated at 6 hours.
same,PYGL gene Regulation,SCC cells; at 6 hours,Down regulated at 6 hours.
same,SREBF1 gene Regulation,SCC cells; at 6 hours,Down regulated at 6 hours.
same,STXBP2 gene Regulation,SCC cells; at 6 hours,Down regulated at 6 hours.
same,TNF gene Regulation,SCC cells; at 6 hours,Down regulated at 6 hours.
same,VEGFA gene Regulation,SCC cells; at 6 hours,Down regulated at 6 hours.
same,genes regulated in the Apoptosis Arrays,[1]; 100 μM,BAG1 and CASP9 and TNFRSF1A
same,BAG1 downregulation over control,"[1]; 100 uM Q10, 16 hours",approximately 6 fold
same,CASP9 upregulation over control,"[1]; 100 uM Q10, 16 hours",approximately 61 fold
same,TNFRSF1A downregulation over control,"[1]; 100 uM Q10, 16 hours",~4 fold
same,BAG1 upregulation over control,"[1]; 100 uM Q10, 48 hours",~1 fold
same,CASP9 upregulation over control,"[1]; 100 uM Q10, 48 hours",approximately 55 fold
same,TNFRSF1A upregulation over control,"[1]; 100 uM Q10, 48 hours",~1 fold
same,ATP Citrate Lysase band Normalized Intensity,"ATP Citrate Lyase (ACL); HASMC (Table 34), 5 g, 50 μM",23341
same,ATP Citrate Lysase band Normalized Intensity,"ATP Citrate Lyase (ACL); HASMC (Table 34), 5 g, 100 μM",25544
same,ATP Citrate Lysase band Normalized Intensity,"ATP Citrate Lyase (ACL); HASMC (Table 34), 22 G, 50 μM",21439
same,ATP Citrate Lysase band Normalized Intensity,"ATP Citrate Lyase (ACL); HASMC (Table 34), 22 G, 100 μM",19491
same,ATP Citrate Lysase band Normalized Intensity,"ATP Citrate Lyase (ACL); HASMC (Table 35), 5 g, 50 μM",12056
same,ATP Citrate Lysase band Normalized Intensity,"ATP Citrate Lyase (ACL); HASMC (Table 35), 5 g, 100 μM",15265
same,ATP Citrate Lysase band Normalized Intensity,"ATP Citrate Lyase (ACL); HASMC (Table 35), 22 G, 50 μM",15857
same,ATP Citrate Lysase band Normalized Intensity,"ATP Citrate Lyase (ACL); HASMC (Table 35), 22 G, 100 μM",13892
same,ATPCL Average Normalized Intensity,"ATP Citrate Lyase (ACL); HDFa, 50 μM",~7500
same,ATPCL Average Normalized Intensity,"ATP Citrate Lyase (ACL); HDFa, 100 μM",~25000
same,ATP Citrate Lysase band Normalized Intensity,"ATP Citrate Lyase (ACL); HepG2, 5 g, 50 μM",24106
same,ATP Citrate Lysase band Normalized Intensity,"ATP Citrate Lyase (ACL); HepG2, 5 g, 100 μM",22463
same,ATP Citrate Lysase band Normalized Intensity,"ATP Citrate Lyase (ACL); HepG2, 22 G, 50 μM",31235
same,ATP Citrate Lysase band Normalized Intensity,"ATP Citrate Lyase (ACL); HepG2, 22 G, 100 μM",50588
same,ATPCL Average Normalized Intensity,"ATP Citrate Lyase (ACL); MCF-7, 50 μM",~7500
same,ATP Citrate Lysase band Normalized Intensity,"ATP Citrate Lyase (ACL); PACA2, 5 g, 50 μM",8027
same,ATP Citrate Lysase band Normalized Intensity,"ATP Citrate Lyase (ACL); PACA2, 5 g, 100 μM",4942
same,ATP Citrate Lysase band Normalized Intensity,"ATP Citrate Lyase (ACL); PACA2, 22 G, 50 μM",9537
same,ATP Citrate Lysase band Normalized Intensity,"ATP Citrate Lyase (ACL); PACA2, 22 G, 100 μM",14901
same,CoQ10 in the reduced form,"[2]; blood (plasma), Bhagavan",~96%
same,CoQ10 in the reduced form,[2]; heart,about 61%
same,molecule found in the reduced form (Q10H2),"[2]; human plasma, Ruiz-Jimenez 2007",90%
same,CoQ10 in the reduced form,[2]; intestine,~95%
same,CoQ10 in the reduced form,[2]; kidney,~75%
same,CoQ10 in the reduced form,[2]; liver,~95%
same,CoQ10 in the reduced form,[2]; muscle,~65%
